In this experiment the test system is BDF1 mice, P388 leukemia ip, median survival T/C. The experiment can be described thus: NCI In Vivo Anticancer Drug Screen. Data for tumor model P388 Leukemia (intraperitoneal) in B6D2F1 (BDF1) mice. Conditions: endpoint: median survival time, higher = longer survival. The procedure, abridged: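 Transplantable tumour in mice; compound vs vehicle dosing; survival scored; ratio of treated to control reported.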

Where [1] appears, read: dose: 100.0 mg/kg/injection, schedule: Q01DX009 (ip), vehicle: Klucel (hydroxypropylcellulose) (HPC).
Where [2] appears, read: dose: 200.0 mg/kg/injection, schedule: Q01DX009 (ip), vehicle: Klucel (hydroxypropylcellulose) (HPC).
[3] abbreviates: dose: 100.0 mg/kg/injection, schedule: Q04DX003 (ip), vehicle: Klucel (hydroxypropylcellulose) (HPC).
[4] abbreviates: dose: 200.0 mg/kg/injection, schedule: Q04DX003 (ip), vehicle: Klucel (hydroxypropylcellulose) (HPC).
[5] abbreviates: dose: 200.0 mg/kg/injection, schedule: Q01DX009 (ip), vehicle: saline.
The mark [6] stands for this setting: dose: 400.0 mg/kg/injection, schedule: Q01DX009 (ip), vehicle: saline.
Setting [7] is: dose: 6.0 mg/kg/injection, schedule: Q01DX009 (ip), vehicle: saline with Tween-80.
The mark [8] stands for this setting: dose: 100.0 mg/kg/injection, schedule: Q01DX009 (ip), vehicle: saline with Tween-80.
Where [9] appears, read: dose: 100.0 mg/kg/injection, schedule: Q04DX003 (ip), vehicle: saline with Tween-80.
Where [10] appears, read: dose: 200.0 mg/kg/injection, schedule: Q04DX003 (ip), vehicle: saline with Tween-80.
Where [11] appears, read: dose: 400.0 mg/kg/injection, schedule: Q04DX003 (ip), vehicle: saline with Tween-80.
Setting [12] is: dose: 50.0 mg/kg/injection, schedule: Q04DX003 (ip), vehicle: saline.
The mark [13] stands for this setting: dose: 50.0 mg/kg/injection, schedule: Q04DX003 (ip), vehicle: Klucel (hydroxypropylcellulose) (HPC).
[14] abbreviates: dose: 200.0 mg/kg/injection, schedule: Q01DX009 (ip), vehicle: saline with Tween-80.
Where [15] appears, read: dose: 400.0 mg/kg/injection, schedule: Q01DX009 (ip), vehicle: saline with Tween-80.

T/C data for 19 compounds are collected here from PubChem BioAssay AID328 (DTP/NCI, 2004).

Several values for one entry are separate records, joined by “and”; a condition that tells them apart may be missing. Equal values may be shown once. Inconclusive results and toxic doses are left out.

For `CCCn1cnc2c(SCc3ccccc3Cl)nc(N)nc21`, the T/C was 90 % of control under setting [1]; 100 % of control (dose: 100.0 mg/kg/injection, schedule: Q04DX003 (ip), vehicle: other); 95 % of control under setting [2]; 95 % of control (dose: 200.0 mg/kg/injection, schedule: Q04DX003 (ip), vehicle: other); 104 % of control (dose: 400.0 mg/kg/injection, schedule: Q04DX003 (ip), vehicle: other).

Consider `Cc1ccc(S(=O)(=O)OC2CCC(C(C)(C)C)CC2Cl)cc1` (stereo unspecified), for which the T/C is 105 % of control under setting [1]; 100 % of control under setting [3]; 110 % of control under setting [2]; 86 % of control under setting [4]; 95 % of control (dose: 400.0 mg/kg/injection, schedule: Q01DX009 (ip), vehicle: Klucel (hydroxypropylcellulose) (HPC)).

With `O=C1C=C2C(=CCOC2O)O1` (stereo unspecified), the T/C is 104 % of control (dose: 0.01 mg/kg/injection, schedule: Q01DX009 (ip), vehicle: other); 111 % of control (dose: 0.03 mg/kg/injection, schedule: Q01DX009 (ip), vehicle: other); 104 % of control (dose: 0.1 mg/kg/injection, schedule: Q01DX009 (ip), vehicle: other); 158 % of control (dose: 3.0 mg/kg/injection, schedule: Q01DX009 (ip), vehicle: other).

As to `COC(=O)C(C)(OC)OC`, the T/C is 100 % of control (dose: 100.0 mg/kg/injection, schedule: Q01DX009 (ip), vehicle: saline); 100 % of control under setting [5]; 100 % of control under setting [6].

Regarding `O=c1c2cccc3cccc(c32)c2nc3ccccc3n12`, the T/C by setting is: (dose: 4.0 mg/kg/injection, schedule: Q01DX009 (ip), vehicle: saline with Tween-80) 100 % of control; under setting [7], 108 % of control; (dose: 6.25 mg/kg/injection, schedule: Q04DX003 (ip), vehicle: saline with Tween-80) 87 % of control; (dose: 12.5 mg/kg/injection, schedule: Q04DX003 (ip), vehicle: saline with Tween-80) 95 % of control; (dose: 25.0 mg/kg/injection, schedule: Q04DX003 (ip), vehicle: saline with Tween-80) 112 % of control.

`[Cl][Pd][Cl].[NH-]CC[NH-]`: the T/C is 104 % of control under setting [7]; 104 % of control (dose: 12.0 mg/kg/injection, schedule: Q01DX009 (ip), vehicle: saline with Tween-80); 100 % of control (dose: 25.0 mg/kg/injection, schedule: Q01DX009 (ip), vehicle: saline with Tween-80); 118 % of control under setting [8]; 100 % of control under setting [9]; 118 % of control under setting [10]. Besides, the T/C under setting [11] is 113 % of control.

On to `N#Cc1c(NN)n(C2OC(CO)C(O)C2O)c2ncnc(N)c12` (stereo unspecified), for which the T/C was 100 % of control under setting [12] and 100 % of control (dose: 83.0 mg/kg/injection, schedule: Q04DX003 (ip), vehicle: saline).

Take `CC(=O)Nc1ccc(Cl)cc1C(=O)c1ccc[nH]1`: the T/C reads like this: (dose: 25.0 mg/kg/injection, schedule: Q01DX009 (ip), vehicle: saline) 100 % of control; (dose: 50.0 mg/kg/injection, schedule: Q01DX009 (ip), vehicle: saline) 95 % of control; under setting [12], 102 % of control; (dose: 100.0 mg/kg/injection, schedule: Q04DX003 (ip), vehicle: saline) 98 % of control; under setting [5], 110 % of control; (dose: 200.0 mg/kg/injection, schedule: Q04DX003 (ip), vehicle: saline) 100 % of control. In addition, the T/C runs as follows: under setting [6], 87 % of control; (dose: 400.0 mg/kg/injection, schedule: Q04DX003 (ip), vehicle: saline) 100 % of control.

Take `NC(=S)NN1C2CSC1CS2`: the T/C (dose: 22.5 mg/kg/injection, schedule: Q01DX009 (ip), vehicle: saline with Tween-80) is 100 % of control; the T/C (dose: 45.0 mg/kg/injection, schedule: Q01DX009 (ip), vehicle: saline with Tween-80) was 110 % of control; the T/C (dose: 90.0 mg/kg/injection, schedule: Q01DX009 (ip), vehicle: saline with Tween-80) is 108 % of control.

In the case of `CN(/N=C/C(O)C(O)C(O)CO)c1ccccc1` (stereo unspecified), the T/C reads like this: under setting [13], 105 % of control; under setting [3], 105 % of control; under setting [4], 100 % of control.

`C=CCn1c(=S)[nH]c2ccccc2c1=O`: the T/C by setting is: under setting [8], 100 % of control; under setting [14], 95 % of control; under setting [15], 100 % of control.

Turning to `COc1ccc(NC(=O)Oc2cc(C)cc(C)c2)cc1`, the T/C under setting [3] was 100 % of control; the T/C under setting [4] is 95 % of control; the T/C (dose: 400.0 mg/kg/injection, schedule: Q04DX003 (ip), vehicle: Klucel (hydroxypropylcellulose) (HPC)) is 100 % of control.

With `O=[N+]([O-])c1cccc(/C=C/c2cc(N(CCO)CCO)c3ccccc3n2)c1`, the T/C (dose: 50.0 mg/kg/injection, schedule: Q01DX009 (ip), vehicle: saline with Tween-80) was 91 % of control; the T/C under setting [8] is 89 % of control; the T/C under setting [14] is 94 % of control.

With `COc1cc2cc(c1Cl)N(C)C(=O)CC(O)C1(C)OC1C(C)C1CC(O)(NC(=O)O1)C(OC)C=C/C=C(\C)C2` (stereo unspecified), the T/C reads like this: (dose: 1.8 micrograms/kg/injection, schedule: Q01DX009 (ip), vehicle: saline + alcohol) 102 % of control; (dose: 3.1 micrograms/kg/injection, schedule: Q01DX009 (ip), vehicle: saline + alcohol) 102 % of control and 115 % of control; (dose: 6.2 micrograms/kg/injection, schedule: Q01DX009 (ip), vehicle: saline + alcohol) 102 % of control and 108 % of control; (dose: 12.5 micrograms/kg/injection, schedule: Q01DX009 (ip), vehicle: saline + alcohol) 102 % of control and 108 % of control; (dose: 25.0 micrograms/kg/injection, schedule: Q01DX009 (ip), vehicle: saline + alcohol) 94 % of control and 113 % of control; (dose: 50.0 micrograms/kg/injection, schedule: Q01DX009 (ip), vehicle: saline + alcohol) 94 % of control and 112 % of control. The T/C (dose: 100.0 micrograms/kg/injection, schedule: Q01DX009 (ip), vehicle: saline + alcohol) was 94 % of control and 105 % of control; the T/C (dose: 200.0 micrograms/kg/injection, schedule: Q01DX009 (ip), vehicle: saline + alcohol) was 108 % of control and 112 % of control; the T/C (dose: 400.0 micrograms/kg/injection, schedule: Q01DX009 (ip), vehicle: saline + alcohol) is 102 % of control.

Consider `O=C(N/N=C/c1ccc2c(c1)CCC2)c1ccccc1`, for which the T/C (dose: 25.0 mg/kg/injection, schedule: Q04DX003 (ip), vehicle: Klucel (hydroxypropylcellulose) (HPC)) was 100 % of control; the T/C under setting [13] is 96 % of control; the T/C under setting [3] was 94 % of control; the T/C under setting [4] was 100 % of control.

Regarding `N#C/C(=C/Cc1ccccc1)Nc1ccccc1`, the T/C under setting [8] was 100 % of control; the T/C under setting [9] is 113 % of control; the T/C under setting [14] is 115 % of control; the T/C under setting [10] is 118 % of control; the T/C under setting [15] is 115 % of control; the T/C under setting [11] is 104 % of control.

As for `CCC(C)C(NC(=O)C(Cc1ccc(O)cc1)NC(=O)C(N)C(C)C)C(=O)NC(Cc1cnc[nH]1)C(=O)N1CCCC1C(=O)NC(Cc1ccccc1)C(=O)OC` (stereo unspecified), the T/C (dose: 50.0 mg/kg/injection, schedule: Q01DX005 (ip), vehicle: saline with Tween-80) is 101 % of control; the T/C (dose: 100.0 mg/kg/injection, schedule: Q01DX005 (ip), vehicle: saline with Tween-80) is 90 % of control; the T/C (dose: 200.0 mg/kg/injection, schedule: Q01DX005 (ip), vehicle: saline with Tween-80) was 90 % of control.

Regarding `CC(C)(C)c1cc([N+](=O)[O-])cc([N+](=O)[O-])c1O`, the T/C runs as follows: (dose: 0.78 mg/kg/injection, schedule: Q01DX009 (ip), vehicle: saline with Tween-80) 105 % of control; (dose: 1.56 mg/kg/injection, schedule: Q01DX009 (ip), vehicle: saline with Tween-80) 101 % of control; (dose: 3.13 mg/kg/injection, schedule: Q01DX009 (ip), vehicle: saline with Tween-80) 101 % of control; (dose: 6.25 mg/kg/injection, schedule: Q01DX009 (ip), vehicle: saline with Tween-80) 99 % of control.

On to `CCOC(=O)CCC(C(=O)OCC)C(=O)OCC`, for which the T/C by setting is: under setting [8], 107 % of control; under setting [9], 91 % of control; under setting [14], 100 % of control; under setting [10], 100 % of control; under setting [15], 92 % of control; under setting [11], 95 % of control.
